Activity calls are given as the source filed them. No cut-off for these calls is given here.
Experiments:
A549 [1] = test: Cytotoxicity against human A549 cells assessed as inhibition of cell viability incubated for 48 hrs by CCK8 assay; assay type: functional, cell-based; conditions: A549, 48 h
NCI-H1299 = test: Cytotoxicity against human NCI-H1299 cells assessed as inhibition of cell viability incubated for 48 hrs by CCK8 assay; assay type: functional, cell-based; conditions: NCI-H1299, 48 h
[2] = Cytotoxicity against human BEAS-2B cells assessed as cell viability upto 20 uM incubated for 48 hrs by CCK8 assay relative to control; assay type: toxicity, cell-based; conditions: read-out: Activity
A549 [3] = test: Induction of apoptosis in human A549 cells assessed as viable cells at 2.5 uM incubated for 48 hrs by Annexin V-FITC/PI staining based flow cytometry (reference value: 87.8 %); assay type: functional; conditions: read-out: Activity
A549 [4] = test: Induction of apoptosis in human A549 cells assessed as early apoptotic cells at 2.5 uM incubated for 48 hrs by Annexin V-FITC/PI staining based flow cytometry (reference value: 5.02 %); assay type: functional
A549 [5] = test: Induction of apoptosis in human A549 cells assessed as late apoptotic cells at 2.5 uM incubated for 48 hrs by Annexin V-FITC/PI staining based flow cytometry (reference value: 5.79 %); assay type: functional
A549 [6] = test: Induction of apoptosis in human A549 cells assessed as necrotic cells at 2.5 uM incubated for 48 hrs by Annexin V-FITC/PI staining based flow cytometry (reference value: 1.41 %); assay type: functional
A549 [7] = test: Induction of apoptosis in human A549 cells assessed as viable cells at 5 uM incubated for 48 hrs by Annexin V-FITC/PI staining based flow cytometry (reference value: 87.8 %); assay type: functional; conditions: read-out: Activity
A549 [8] = test: Induction of apoptosis in human A549 cells assessed as early apoptotic cells at 5 uM incubated for 48 hrs by Annexin V-FITC/PI staining based flow cytometry (reference value: 5.02 %); assay type: functional
A549 [9] = test: Induction of apoptosis in human A549 cells assessed as late apoptotic cells at 5 uM incubated for 48 hrs by Annexin V-FITC/PI staining based flow cytometry (reference value: 5.79 %); assay type: functional
A549 [10] = test: Induction of apoptosis in human A549 cells assessed as necrotic cells at 5 uM incubated for 48 hrs by Annexin V-FITC/PI staining based flow cytometry (reference value: 1.41 %); assay type: functional
A549 [11] = test: Induction of apoptosis in human A549 cells assessed as viable cells at 10 uM incubated for 48 hrs by Annexin V-FITC/PI staining based flow cytometry (reference value: 87.8 %); assay type: functional; conditions: read-out: Activity
A549 [12] = test: Induction of apoptosis in human A549 cells assessed as early apoptotic cells at 10 uM incubated for 48 hrs by Annexin V-FITC/PI staining based flow cytometry (reference value: 5.02 %); assay type: functional
A549 [13] = test: Induction of apoptosis in human A549 cells assessed as late apoptotic cells at 10 uM incubated for 48 hrs by Annexin V-FITC/PI staining based flow cytometry (reference value: 5.79 %); assay type: functional
A549 [14] = test: Induction of apoptosis in human A549 cells assessed as necrotic cells at 10 uM incubated for 48 hrs by Annexin V-FITC/PI staining based flow cytometry (reference value: 1.41 %); assay type: functional
A549 [15] = test: Induction of apoptosis in human A549 cells at 5 uM incubated for 48 hrs by Annexin V-FITC/PI staining based flow cytometry relative to control; assay type: functional
A549 [16] = test: Induction of apoptosis in human A549 cells at 15 uM incubated for 48 hrs by Annexin V-FITC/PI staining based flow cytometry relative to control; assay type: functional
A549 [17] = test: Induction of apoptosis in human A549 cells incubated for 48 hrs by Annexin V-FITC/PI staining based flow cytometry; assay type: functional, cell-based; conditions: dose 5-15 µM
A549 [18] = test: Induction of apoptosis in human A549 cells assessed as increase in BAX level at 2.5 to 10 uM incubated for 48 hrs by Western blot analysis; assay type: functional, cell-based; conditions: dose 2.5-10 µM
A549 [19] = test: Induction of apoptosis in human A549 cells assessed as increase in BAD level at 2.5 to 10 uM incubated for 48 hrs by Western blot analysis; assay type: functional, cell-based; conditions: dose 2.5-10 µM
A549 [20] = test: Induction of apoptosis in human A549 cells assessed as decrease in Bcl-2 level at 2.5 to 10 uM incubated for 48 hrs by Western blot analysis; assay type: functional, cell-based; conditions: dose 2.5-10 µM
A549 [21] = test: Induction of apoptosis in human A549 cells assessed as activation of caspase-3 cleavage at 2.5 to 10 uM incubated for 48 hrs by Western blot analysis; assay type: functional, cell-based; conditions: dose 2.5-10 µM
A549 [22] = test: Induction of apoptosis in human A549 cells assessed as activation of caspase-9 cleavage at 2.5 to 10 uM incubated for 48 hrs by Western blot analysis; assay type: functional, cell-based; conditions: dose 2.5-10 µM
A549 [23] = test: Effect on c-Myc mRNA expression in human A549 cells at 10 uM by Q-PCR analysis; assay type: functional, cell-based
[24] = molecular target: Myc proto-oncogene protein (Homo sapiens) (UniProt P01106); test: Inhibition of c-Myc in human A549 cells by Western blot analysis; assay type: cell-based; conditions: dose <= 10.0 µM
Myc proto-oncogene protein (Homo sapiens), sequence (P01106 whole entry): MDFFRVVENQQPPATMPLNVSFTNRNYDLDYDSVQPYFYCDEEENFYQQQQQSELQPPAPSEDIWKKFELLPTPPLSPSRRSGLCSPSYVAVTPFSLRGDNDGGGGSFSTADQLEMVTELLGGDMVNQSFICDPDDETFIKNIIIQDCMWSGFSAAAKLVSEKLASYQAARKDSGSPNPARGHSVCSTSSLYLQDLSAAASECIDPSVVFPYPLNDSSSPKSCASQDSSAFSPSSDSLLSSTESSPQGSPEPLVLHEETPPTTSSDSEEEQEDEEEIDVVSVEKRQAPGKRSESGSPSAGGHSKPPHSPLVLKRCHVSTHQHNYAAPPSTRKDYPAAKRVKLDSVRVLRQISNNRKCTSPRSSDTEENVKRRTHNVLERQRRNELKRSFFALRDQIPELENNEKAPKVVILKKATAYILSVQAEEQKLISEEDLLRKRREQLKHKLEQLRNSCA

[25] = molecular target: Myc proto-oncogene protein (Homo sapiens) (UniProt P01106); test: Inhibition of c-Myc in human NCI-H1299 cells by Western blot analysis; assay type: cell-based; conditions: dose <= 10.0 µM
[26] = molecular target: Myc proto-oncogene protein (Homo sapiens) (UniProt P01106); test: Inhibition of c-Myc in human A549 cells at 10 uM incubated for 24 hrs in presence of MG132 by Western blot analysis; assay type: cell-based
[27] = molecular target: Myc proto-oncogene protein (Homo sapiens) (UniProt P01106); test: Inhibition of c-Myc in human A549 cells assessed as decrease in half life at 10 uM pretreated for 12 hrs followed by CHX treatment for 1 to 2 hrs by Western blot analysis; assay type: cell-based; conditions: time 13-14 hrs
A549 [28] = test: Induction of apoptosis in human A549 cells at 5 to 15 uM incubated for 48 hrs by Annexin V-FITC/PI staining based flow cytometry relative to control; assay type: functional; conditions: dose 5-15 µM
[29] = molecular target: Myc proto-oncogene protein (Homo sapiens) (UniProt P01106); test: Inhibition of c-Myc transcriptional activity (unknown origin) at 10 uM by luciferase reporter gene assay
[30] = molecular target: c-Myc/c-Max (Homo sapiens) (UniProt P01106+P61244); test: Disruption of c-Myc-Max interaction in human A549 cells assessed as decrease in at 10 uM incubated for 48 hrs by immunoprecipitation method; assay type: cell-based
c-Myc/c-Max (Homo sapiens), sequence (P01106 whole entry): as above
c-Myc/c-Max (Homo sapiens), sequence (P61244 2-160 partner limits assumed): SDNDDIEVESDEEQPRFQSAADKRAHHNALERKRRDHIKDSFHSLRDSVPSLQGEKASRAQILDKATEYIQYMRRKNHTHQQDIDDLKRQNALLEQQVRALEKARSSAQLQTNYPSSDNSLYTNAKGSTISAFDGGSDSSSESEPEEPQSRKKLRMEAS

[31] = tested on: Lewis lung carcinoma cell line; test: Antitumor activity against mouse Lewis lung carcinoma cells allografted in C57BL/6 mouse assessed as inhibition of tumor growth administered intraperitoneally every two days for 28 days; assay type: functional, cell-based; conditions: dose 20-40 mg/kg, route ip, time 28.0 day
[32] = Toxicity in C57BL/6 mouse allografted with mouse Lewis lung carcinoma cells assessed as body weight loss at 20 to 40 mg/kg, ip administered every two days for 28 days; assay type: organism-based; conditions: in vivo, 672 h, dose 20-40 mg/kg, time 28 day
[33] = Toxicity in C57BL/6 mouse allografted with mouse Lewis lung carcinoma cells assessed as discernible signs of toxicity at 20 to 40 mg/kg, ip administered every two days for 28 days; assay type: organism-based; conditions: in vivo, 672 h, dose 20-40 mg/kg, time 28 day
[34] = tested on: Lewis lung carcinoma cell line; test: Antitumor activity against mouse Lewis lung carcinoma cells allografted in C57BL/6 mouse at 20 mg/kg, ip administered every two days for 28 days relative to control; assay type: functional; conditions: 672 h, time 28 day, read-out: TGI
[35] = tested on: Lewis lung carcinoma cell line; test: Antitumor activity against mouse Lewis lung carcinoma cells allografted in C57BL/6 mouse at 40 mg/kg, ip administered every two days for 28 days relative to control; assay type: functional; conditions: 672 h, time 28 day, read-out: TGI
Lewis lung carcinoma = test: In vivo inhibition of c-Myc in mouse Lewis lung carcinoma cells allografted in C57BL/6 mouse at 20 to 40 mg/kg, ip administered every two days for 28 days by Western blot analysis; assay type: functional, organism-based; conditions: dose 20-40 mg/kg, time 28.0 day
[36] = Toxicity in C57BL/6 mouse allografted with mouse Lewis lung carcinoma cells assessed as pathological damage in heart at 20 mg/kg, ip administered every two days for 28 days by H and E staining based analysis; assay type: organism-based; conditions: in vivo, 672 h, time 28 day
[37] = Toxicity in C57BL/6 mouse allografted with mouse Lewis lung carcinoma cells assessed as pathological damage in liver at 20 mg/kg, ip administered every two days for 28 days by H and E staining based analysis; assay type: organism-based; conditions: in vivo, 672 h, time 28 day
[38] = Toxicity in C57BL/6 mouse allografted with mouse Lewis lung carcinoma cells assessed as pathological damage in spleen at 20 mg/kg, ip administered every two days for 28 days by H and E staining based analysis; assay type: organism-based; conditions: in vivo, 672 h, time 28 day
[39] = Toxicity in C57BL/6 mouse allografted with mouse Lewis lung carcinoma cells assessed as pathological damage in kidneys at 20 mg/kg, ip administered every two days for 28 days by H and E staining based analysis; assay type: organism-based, Kidney; conditions: in vivo, 672 h, time 28 day

| SMILES | IC50 (A549 [1]) [µM] | IC50 (NCI-H1299) [µM] | viability at 48 h, 20 µM [2] [%] | viability at 2.5 µM (A549 [3]) [%] | Activity (A549 [4]) [%] | Activity (A549 [5]) [%] | Activity (A549 [6]) [%] | viability at 5 µM (A549 [7]) [%] | Activity (A549 [8]) [%] | Activity (A549 [9]) [%] | Activity (A549 [10]) [%] | viability at 10 µM (A549 [11]) [%] | Activity (A549 [12]) [%] | Activity (A549 [13]) [%] | Activity (A549 [14]) [%] | Activity (A549 [17]) | Activity (A549 [18]) | Activity (A549 [19]) | Activity (A549 [20]) | Activity (A549 [21]) | other results |
| --- | --- | --- | --- | --- | --- | --- | --- | --- | --- | --- | --- | --- | --- | --- | --- | --- | --- | --- | --- | --- | --- |
| c1ccc2c(c1)nc(-c1cc(-c3ccc(N4CCOCC4)cc3)on1)n2CCN1CCCC1 | 6.32 | 11.4 | > 90 | 72.1 | 4.67 | 17.7 | 5.52 | 66.3 | 11.7 | 19.5 | 2.44 | 43.2 | 7.88 | 45.2 | 3.66 | Dose-dependent-effect | Active | Active | Active | Active | Activity (A549 [15]): 22.3%; Activity (A549 [16]): 53%; Activity (A549 [22]): Active; Activity (A549 [23]): inactive; inhibition [24]: Dose-dependent-effect; inhibition [25]: Dose-dependent-effect; inhibition [26]: inactive; inhibition [27]: Active |
| c1ccc2c(c1)nc(-c1cc(-c3ccc(N4CCOCC4)cc3)on1)n2CCN1CCCCC1 | 4.08 | 7.86 | > 90 | 70.1 | 8.46 | 18.7 | 2.76 | 68.3 | 9.5 | 19.6 | 2.63 | 26.1 | 37.8 | 33 | 3.05 | Dose-dependent-effect | Active | Active | Active | Active | Activity (A549 [28]): 27%; Activity (A549 [22]): Active; Activity (A549 [23]): inactive; inhibition [24]: Dose-dependent-effect; inhibition [25]: Dose-dependent-effect; inhibition [26]: inactive; inhibition [27]: Active; inhibition [29]: Active; Activity [30]: Active; inhibition [31]: Active; Activity [32]: Non-toxic; Activity [33]: Non-toxic; inhibition in vivo at 20 mg/kg [34]: 59.9%; inhibition in vivo at 40 mg/kg [35]: 76.4%; inhibition (Lewis lung carcinoma): Active; Activity [36]: Non-toxic; Activity [37]: Non-toxic; Activity [38]: Non-toxic; Activity [39]: Non-toxic |
